According to ChEMBL document CHEMBL1201862, “PubChem BioAssay data set” (2004):
Calls of active or inactive are those of the source.

Key:
[1] = cytotoxicity toward HT-29 cells – cell-based, CellTiter-Glo luminescence, IC50, dose response (AID 1117330); assay type: functional
[2] = HCT116 cell viability decrease, GSK3B pretreatment – CellTiter-Glo, IC50, dose response (AID 1117339); assay type: functional; conditions: HCT-116
[3] = cytotoxicity toward Colo320 cells – cell-based, CellTiter-Glo luminescence, IC50, dose response (AID 1117334); assay type: functional; conditions: COLO 320
[4] = CellTiter-Glo luminescence survival assay, SW480 colon tumor line, concentration-response curve, half-maximal inhibitory concentration (AID 1117338); assay type: functional
[5] = RKO cell viability reduction, dose response, CellTiter-Glo luminescence (AID 1117322); assay type: functional
[6] = cytotoxicity toward HCT116 cells – cell-based, CellTiter-Glo luminescence, IC50, dose response (AID 1117332); assay type: functional; conditions: HCT-116
[7] = SNU-C1 cell viability reduction, dose response, CellTiter-Glo luminescence (AID 1117323); assay type: functional, cell-based
[8] = Reduced DLD-1 viability, concentration-response, CellTiter-Glo luminescence (AID 1117352); assay type: functional
[9] = viability loss in CEM21 cells – cell-based, CellTiter-Glo luminescence, cherry-picked, cytotoxicity control for viral fusion inhibitor project, dose response (AID 652042); assay type: functional;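 note: potency for signal decrease meaning cytotoxicity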
[10] = HIV-1 AD8 envelope cell-cell fusion blockers – cherry-pick, dose response (AID 652062); assay type: functional, cell-based;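 note: luciferase signal from cell-cell fusion driven by HIV-1 clade B AD8 Env; potency is for inhibitors of fusion seen as a drop in luminescence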
[11] = P. falciparum Dd2 growth inhibitors, dose response, SYBR Green, cherry-picked samples (AID 1159567); assay type: functional, cell-based
[12] = blockers of HIV-1 envelope-mediated cell-cell fusion – cherry-pick, dose response (AID 652057); assay type: functional, cell-based
[13] = off-target signal loss in HeLa-CEM21 co-culture – HeLa F-luc CTL cells, cherry-picked, counter-screen for HIV-1 Env fusion inhibitor project, dose response (AID 652040); assay type: functional, cell-based;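 note: potency for signal decrease marking cytotoxic or nonspecific inhibition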
Streptokinase A = target: T1, Streptokinase A (Streptococcus pyogenes serotype M1, UniProt P10520); assay: viability-normalized secreted streptokinase activity reduction – plasminogen activation absorbance, OD405, dose response (AID 1914); assay type: functional, Streptococcus pyogenes M1 GAS;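 note: secreted streptokinase activity via plasminogen activation per viability signal from cell pellet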
T1 sequence (P10520 whole entry): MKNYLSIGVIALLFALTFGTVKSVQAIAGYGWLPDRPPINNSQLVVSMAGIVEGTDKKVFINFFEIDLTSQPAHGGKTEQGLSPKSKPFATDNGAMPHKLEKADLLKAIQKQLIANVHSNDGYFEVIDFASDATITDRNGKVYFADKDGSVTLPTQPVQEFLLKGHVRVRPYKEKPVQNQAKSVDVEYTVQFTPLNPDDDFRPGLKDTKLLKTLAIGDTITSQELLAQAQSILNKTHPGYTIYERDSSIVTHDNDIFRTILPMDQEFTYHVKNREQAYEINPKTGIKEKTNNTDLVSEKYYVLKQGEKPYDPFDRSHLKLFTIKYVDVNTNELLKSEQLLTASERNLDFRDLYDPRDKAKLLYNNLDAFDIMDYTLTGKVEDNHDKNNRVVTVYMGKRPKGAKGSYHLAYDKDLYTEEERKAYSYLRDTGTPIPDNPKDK

[14] = system: Streptococcus sp. 'group A'; assay: Streptococcus pyogenes SK(-)GAS viability under kanamycin – luminescence, BacTiterGlo, confirmation, counter-screen for streptokinase expression inhibitor project, dose response (AID 1900); assay type: functional, organism-based
Streptococcus = assay: GAS UMAA2166 growth inhibition – luminescence, BacTiterGlo, counter-screen for streptokinase expression inhibitor project, dose response (AID 1915); assay type: functional, organism-based;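 note: potency for reduction of bacterial viability or growth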
[15] = target: T2, Long-chain-fatty-acid--AMP ligase FadD28 (Mycobacterium tuberculosis, UniProt P9WQ59); assay: Fluorescence polarization aasay to screen for inhibitors that compete for the binding of FadD28 to a bisubstrate Measured in Biochemical System Using Plate Reader - 2147-01_Inhibitor_Dose_CherryPick_Activity.; assay type: functional, Mycobacterium tuberculosis H37Rv
T2 sequence (P9WQ59 whole entry): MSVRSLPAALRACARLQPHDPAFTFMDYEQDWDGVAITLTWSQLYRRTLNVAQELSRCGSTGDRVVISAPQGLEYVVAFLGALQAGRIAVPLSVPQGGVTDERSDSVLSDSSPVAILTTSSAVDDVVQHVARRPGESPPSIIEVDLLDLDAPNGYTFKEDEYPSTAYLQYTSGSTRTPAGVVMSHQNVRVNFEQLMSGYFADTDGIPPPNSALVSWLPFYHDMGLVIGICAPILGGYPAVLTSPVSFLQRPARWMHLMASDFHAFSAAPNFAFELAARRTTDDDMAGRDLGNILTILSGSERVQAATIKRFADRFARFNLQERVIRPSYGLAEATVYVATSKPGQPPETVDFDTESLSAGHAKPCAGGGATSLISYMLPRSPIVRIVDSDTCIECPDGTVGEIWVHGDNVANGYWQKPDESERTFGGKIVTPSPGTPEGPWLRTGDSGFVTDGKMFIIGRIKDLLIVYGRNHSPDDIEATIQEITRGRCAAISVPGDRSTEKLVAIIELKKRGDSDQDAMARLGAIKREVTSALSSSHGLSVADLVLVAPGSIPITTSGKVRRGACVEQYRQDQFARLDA

[16] = target: NAD-dependent protein deacylase sirtuin-5, mitochondrial (Homo sapiens, UniProt Q9NXA8); assay: sirtuin-5 deacylation blockers, concentration series – biochemical, fluorescence imaging, cherry-pick, set 5, dose response (AID 720591);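 note: desuccinylation of succinyl peptide AMC substrate read as fluorescence after trypsin release; potency of inhibitors that lower fluorescence and may act on trypsin instead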
[17] = target: T3, Heat shock factor protein 1 (Mus musculus, UniProt P38532); assay: decrease of HSF1-responsive luciferase luminescence – cell-based, NIH3T3, dose retest, confirmation (AID 2382); assay type: functional;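 note: NIH3T3 fibroblasts with HSF1-driven luciferase reporter stressed by proteasome inhibitor MG132; luminescence from HSF1-driven luciferase expression after 8 hours of MG132 stress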
T3 sequence (P38532 whole entry): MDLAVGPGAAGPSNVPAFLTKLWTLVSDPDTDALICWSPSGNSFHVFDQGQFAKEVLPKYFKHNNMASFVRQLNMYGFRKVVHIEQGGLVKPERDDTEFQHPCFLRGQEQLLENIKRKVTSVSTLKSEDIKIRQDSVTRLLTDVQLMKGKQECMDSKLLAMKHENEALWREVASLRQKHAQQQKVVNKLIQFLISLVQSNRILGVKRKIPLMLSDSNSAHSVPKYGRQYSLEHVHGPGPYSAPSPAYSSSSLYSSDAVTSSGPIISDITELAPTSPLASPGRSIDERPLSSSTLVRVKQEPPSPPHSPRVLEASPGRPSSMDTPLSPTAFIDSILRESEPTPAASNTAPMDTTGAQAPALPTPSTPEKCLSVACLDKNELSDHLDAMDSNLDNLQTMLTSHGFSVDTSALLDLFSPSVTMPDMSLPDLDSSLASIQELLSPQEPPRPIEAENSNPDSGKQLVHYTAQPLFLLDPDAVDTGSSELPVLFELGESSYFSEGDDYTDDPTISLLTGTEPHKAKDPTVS

Mu-type opioid receptor = Mu-type opioid receptor (Homo sapiens, UniProt P35372); assay type: functional, cell-based;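 note: U2OS cells with beta-arrestin recruitment to OPRM1 by beta-gal complementation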
[18] = target: 5-hydroxytryptamine receptor 2A (Mus musculus, UniProt P35363); assay type: functional, cell-based;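 note: CHO-K1 cells with tagged receptor and beta-arrestin; agonist potency measured as compound-induced activation of the receptor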
5-hydroxytryptamine receptor 2A, sequence (P35363 whole entry): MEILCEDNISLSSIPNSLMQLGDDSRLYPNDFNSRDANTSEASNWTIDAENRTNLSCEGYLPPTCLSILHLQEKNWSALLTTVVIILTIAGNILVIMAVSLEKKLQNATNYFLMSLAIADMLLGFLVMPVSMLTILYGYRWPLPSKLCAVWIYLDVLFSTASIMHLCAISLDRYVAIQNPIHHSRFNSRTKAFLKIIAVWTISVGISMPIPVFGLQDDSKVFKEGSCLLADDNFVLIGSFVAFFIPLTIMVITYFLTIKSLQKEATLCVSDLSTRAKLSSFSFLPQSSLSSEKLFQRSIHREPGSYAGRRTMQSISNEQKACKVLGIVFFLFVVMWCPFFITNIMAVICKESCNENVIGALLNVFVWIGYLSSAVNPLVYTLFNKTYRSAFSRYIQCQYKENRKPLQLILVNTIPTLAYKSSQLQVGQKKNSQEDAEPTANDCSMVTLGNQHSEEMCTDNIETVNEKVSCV

Mu-type opioid receptor, sequence (P35372 whole entry): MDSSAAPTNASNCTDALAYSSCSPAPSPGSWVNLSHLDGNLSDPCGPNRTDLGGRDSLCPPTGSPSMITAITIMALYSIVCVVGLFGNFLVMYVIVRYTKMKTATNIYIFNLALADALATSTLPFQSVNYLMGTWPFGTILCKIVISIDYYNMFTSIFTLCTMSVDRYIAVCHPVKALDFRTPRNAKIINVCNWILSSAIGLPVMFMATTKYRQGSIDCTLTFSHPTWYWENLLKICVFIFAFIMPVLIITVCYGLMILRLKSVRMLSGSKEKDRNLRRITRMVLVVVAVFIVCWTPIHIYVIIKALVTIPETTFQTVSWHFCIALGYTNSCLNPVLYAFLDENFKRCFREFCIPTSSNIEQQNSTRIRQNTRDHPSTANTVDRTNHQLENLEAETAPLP
NAD-dependent protein deacylase sirtuin-5, mitochondrial, sequence (Q9NXA8 whole entry): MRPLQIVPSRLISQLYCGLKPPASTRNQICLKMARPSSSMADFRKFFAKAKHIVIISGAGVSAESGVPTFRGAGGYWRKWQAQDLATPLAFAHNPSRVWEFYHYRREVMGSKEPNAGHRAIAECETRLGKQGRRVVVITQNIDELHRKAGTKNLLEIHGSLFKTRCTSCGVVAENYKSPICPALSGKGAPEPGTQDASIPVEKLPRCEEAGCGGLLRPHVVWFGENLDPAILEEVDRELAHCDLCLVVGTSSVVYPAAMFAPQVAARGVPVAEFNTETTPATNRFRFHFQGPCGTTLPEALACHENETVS

SMILES: CCCCCCOC(=O)c1cccnc1
- IC50 [1]: > 20 µM (inactive)
- IC50 [2]: > 20 µM (inactive)
- IC50 [3]: > 20 µM (inactive)
- IC50 [4]: > 20 µM (inactive)
- IC50 [5]: > 20 µM (inactive)
- IC50 [6]: > 20 µM (inactive)
- IC50 [7]: > 20 µM (inactive)
- IC50 [8]: > 20 µM (inactive)

SMILES: C[C@@H]1CN([C@H](C)CO)S(=O)(=O)c2ccc(C#Cc3ccccc3)cc2O[C@H]1CN(C)C(=O)C1CC1
- AC50 [9]: 44.3 µM (active)
- AC50 [10]: 11.1 µM (active)
- AC50 [11]: 7.33 µM (active)
- AC50 [12]: 2.66 µM (active)

SMILES: Cc1ccc(C2Oc3ccccc3C3=C2C(c2cccs2)n2ncnc2N3)cc1 (stereo unspecified)
- AC50 [13]: 14.1 µM (active)
- AC50 [9]: 31.7 µM (active)
- EC50 (Streptokinase A): > 150 µM (not active)
- EC50 [14]: 2.7 µM (active)
- AC50 [12]: 9.29 µM (active)
- EC50 (Streptococcus): 7.1 µM (active)

SMILES: Cc1ccc(C2CC(=O)N3CN(Cc4ccco4)CSC3=C2C#N)cc1 (stereo unspecified)
- AC50 [15]: 82.5 µM (active)

SMILES: CN(CC(=O)Nc1cccc(Cl)c1)S(=O)(=O)c1ccc2c(c1)n(C)c(=O)c(=O)n2C
- AC50 [16]: > 30 µM (inactive)

SMILES: Cc1cccc(NC(=O)CN2C(=O)N/C(=C/c3cc(C)n(C(C)C)c3C)C2=O)c1
- AC50 [15]: 7.01 µM (active)
- EC50 [17]: > 195 µM (not active)

SMILES: OC(COCc1ccc(Cl)cc1)CN1CCN(c2ccccn2)CC1 (stereo unspecified)
- EC50 (Mu-type opioid receptor): 92.5 µM (inactive)
- EC50 [18]: 0.819 µM (active)

SMILES: COc1ccc(NC(=O)N[C@@H](CCSC)C(=O)O)cc1OC
- AC50 [16]: > 30 µM (inactive)

SMILES: COc1cccc(C(=O)NNC(=O)CCN2CCN(c3ccccc3)CC2)c1
- EC50 (Mu-type opioid receptor): 92.4 µM (inactive)
- EC50 [18]: 0.427 µM (active)

SMILES: CCn1cc(CN2CCC(C(=O)Nc3ccc(Oc4cccnc4)cc3)CC2)cn1
- AC50 [15]: 37.3 µM (active)
- EC50 (Streptokinase A): > 150 µM (not active)
- EC50 [14]: > 150 µM (not active)
- EC50 (Streptococcus): > 150 µM (not active)
